Results: patent US7547532B2, “Three-dimensional structure of prostaglandin D synthase and utilization thereof” (Japan Science and Technology Agency, priority 2001, dated 2009)
Values belong to the molecule of their own block, whether it stands above or below them.

Columns and labels:
[1] = test system: allergic reaction; details: known from Matsushita et al. 1998, various experimental models; cited from earlier work
[2] = cited from earlier work
[3] = test system: sleep condition; details: administered in the ventricle of the brain of a mouse; cited from earlier work
[4] = target: T1, human hematopoietic PGDS (Homo sapiens, UniProt O60760, N144M); assay: Glutathione binding/affinity to PGDS with metal ion; details: metal ion in center of PGDS dimer
T1 construct: made in house; host or cells: Escherichia coli BL21 (DE-3), plasmid pT7-7hPGDS
T1 sequence (O60760 2-199 N144M): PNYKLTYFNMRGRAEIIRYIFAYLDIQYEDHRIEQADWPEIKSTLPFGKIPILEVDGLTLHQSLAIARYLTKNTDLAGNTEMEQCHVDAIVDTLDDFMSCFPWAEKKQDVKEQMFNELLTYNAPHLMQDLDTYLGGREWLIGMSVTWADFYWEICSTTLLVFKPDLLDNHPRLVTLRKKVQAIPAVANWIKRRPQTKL

[5] = target: hematopoietic PGDS (Homo sapiens, UniProt O60760); assay: PGDS enzymatic activity: conversion of PGH2 to PGD2 (confirmation of inhibitors); type: biochemical; details: metal ion in center of PGDS dimer
Sequence of hematopoietic PGDS (O60760 whole entry): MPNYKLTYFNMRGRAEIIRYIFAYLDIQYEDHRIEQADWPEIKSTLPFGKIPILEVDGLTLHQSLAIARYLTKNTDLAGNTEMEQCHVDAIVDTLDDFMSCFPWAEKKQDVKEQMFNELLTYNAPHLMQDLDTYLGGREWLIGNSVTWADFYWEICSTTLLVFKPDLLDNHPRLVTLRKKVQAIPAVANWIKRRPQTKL
Description: After a candidate compound for inhibition of hematopoietic PGDS is thus selected, the selected compound is contacted with the enzyme in the presence of the substrate (prostaglandin H2) to confirm the compound can inhibit the enzymatic activity (Shimizu, T., Yamamoto, S., and Hayaishi, O. (1979). Purification and properties of prostaglandin D synthase from rat brain. J. Biol. Chem. 254, 5222-5228). The measurement of enzymatic activity is, for example, carried out as follows: The substrate [1-^14C]prostaglandin(PG)H2 is prepared by reacting [1-^14C]arachidonic acid with cyclooxygenase. Since PGH2 is easily decomposed in aqueous solution (half-life: about 5 minutes), it is dried and stored at a low temperature (−80° C.). […] After the development, radioactivity of PGD2 fraction and other fraction are measured and the enzyme activity is calculated from the ratio of conversion to PGD2.
Alternatively, enzyme reaction is carried out using commercially available non-labeled PGH2. After the reaction, PGH2 is decomposed to 12(S)-hydroxy-8,10-trans-5-cis-heptadecatrienolic acid with the treatment by FeCl2 before quantifying with reverse phase HPLC using 11-β-PGE2 as an internal standard or commercially available ELISA to quantify PGD2.

Molecule: c1ccc(C(OC2CCN(CCCc3nnn[nH]3)CC2)c2ccccc2)cc1 [HQL-79, 4-benzhydryloxy-1-{3-(1H-tetrazol-5-yl)-propyl}piperidine]
- anti-allergic activity [1]: anti-allergic activity

Molecule: CCCCC[C@H](O)/C=C/[C@@H]1[C@@H](C/C=C\CCCC(=O)O)[C@@H]2C[C@H]1OO2 [PGH2, prostaglandin H2]
- half-life in aqueous solution [2]: about 5 minutes

Molecule: CCCCC[C@H](O)/C=C/[C@H]1C(=O)C[C@H](O)[C@@H]1C/C=C\CCCC(=O)O [prostaglandin D2, Prostaglandin D2]
- effect on sleep [3]: sleep is induced

- influence on glutathione binding [4]: no influence on the glutathione binding
Molecule: Calcium
- effect on reaction rate of PGDS enzyme [5]: increases the reaction rate of PGDS enzyme

- increase of affinity of glutathione to PGDS [4]: more than 3 times
Molecule: Magnesium
